{
  "source": "patent US5084481A",
  "about": "“Method of treating inflammatory diseases with pharmaceutical composition containing dihydrolipoic acid as active substance” (Asta Pharma Aktiengesellschaft, priority 1989, dated 1992)",
  "key": {"[1]": {"assay": "Acetic acid writhing pain test in mouse", "format": "in vivo", "settings": "for ED50: read-out: analgesically effective ED50, acetic acid writhing test", "from_the_text": "Acetic acid test (Writhing test) in the mouse\nIn the acetic acid test after KOSTER et al. (Fed. proc., Vol. 18, page 412 (1959)) the pain irritation is triggered by an intraperitoneal injection of 1% acetic acid. The pain reaction is expressed in the form of a characteristic stretching of the animals (\"writhing syndrome\") which continues at irregular intervals for some time after the acetic acid injection. The dose-related inhibition of the frequency of writhing movements as compared to an untreated control group is expressed as an analgesic effect in percent. Evaluation is effected by determining the ED50 (linear regression method). The ED50 is the dose in mg/kg which achieves a 50% inhibition in the writhing syndrome.\nThe characteristic feature of the acetic acid test is that it not only determines the effect of strong, centrally acting analgesics, but also that of predominantly peripherally acting analgesic, antipyretic and anti-inflammatory agents such as phenylbutazone, indomethacin, etc."}, "[2]": {"assay": "Randall Selitto inflammation pain test in rat", "format": "in vivo", "settings": "for ED50: 0.5 h, pain threshold 30 minutes after substance, read-out: analgesically effective ED50, Randall Selitto test", "procedure": "The following is a brief description of the pharmacological test methods specially mentioned herein: Randall Selitto Test (inflammatory pain in the rat):\nOn the basis of the method after RANDALL and SELITTO (L.O. Randall and J. Selitto, Arch. int. Pharmacodyn., Vol. 111, pages 409-418 (1957)) 0.1 ml of a 20% suspension of brewer's yeast (in demineralized water) is injected subplantar into the right rear paw of rats. After 21/2 hours the test substances are given and 30 minutes later the pain threshold is measured as a pressure (in grams) on the inflamed paw using an algesimeter (equipment by Ugo BASILE, Milan/Italy). The criterion is the defense reaction of the animals in pulling the paw away and/or escaping from the technician's grip. The effect of the substance is determined by the increase in the pain threshold compared to an untreated control group. The course of the experiment differs from the original method in that the substances are only administered 21/2 hours after appearance of the edema and not given simultaneously therewith. This is done in order to prevent the development of the edema being inhibited by any possible anti-inflammatory action and the analgesia being masked or feigned.\nThe ED50 is determined using the linear regression method. The ED50 is then the dose in mg/kg for which a 50% analgesic effect is calculated."}, "[3]": {"assay": "Carragheen-induced edema test in the rat (anti-inflammatory effect)", "format": "in vivo", "settings": "for ED50: read-out: anti-inflammatorally effective ED50, carragheen edema", "procedure": "Carragheen-edema test for anti-inflammatory effect\nThe examination is carried out in carragheen-induced edema of rat paw on the basis of the method of MoRSDORF and colleagues (Arch. int. Pharmacodyn. 192, 111-127 (1971)). The anti-inflammatory effect is for example quoted as edema inhibition in percent as compared to the untreated control group. […]. The substance is given orally or intraperitoneally […]. The ED50 is the dose in mg/kg at which there is a 50% inhibition of the paw edema."}, "[4]": {"assay": "PAF-acether edema in the rat", "format": "in vivo", "settings": "for % effect, PAF-acether edema: rat, given 0.5 hours before triggering, edema measured 1 hour thereafter", "procedure": "(Platelet Aggregating Factor)-acether-edema in the rat\nThe principle of this method is to provoke a locally limited edema or inflammation in the rat paw by means of the subplantar injection of 2 μg of PAF acether per animal. The investigations were carried out on the basis of the method of SWINGLE and REITER (Agents and actions, 18, 358-365, (1986)). The animals received the test substances 0.5 hours before triggering of the edema. The edema was measured 1 hour thereafter. The ED50 was calculated using the linear regression method."}, "[5]": {"assay": "Acute toxicity in the mouse (LD50, Litchfield and Wilcoxon)", "settings": "in vivo, oral application", "procedure": "The acute toxicity of the invention in the mouse (expressed as the LD50 mg/kg; method of LITCHFIELD and WILCOXON, J. Pharmacol. Exp. Ther. 95:99, (1949)) is for example above 200 mg/kg in the case of oral application."}, "[6]": {"assay": "Cytoprotective effect in animal trials", "settings": "in vivo"}, "[7]": {"assay": "Comparison of the effect with alpha-lipoic acid and S-adenosyl-L-methionine (animal experiments)", "format": "in vivo"}, "[8]": {"assay": "Further investigatory models (MgSO4 writhing, adjuvans arthritis, mouse ear edema, arthrosis, intestinal ulceration, colitis, ethanol ulcer, UV-B radiation in healthy subjects)", "format": "in vivo, rat, chicken", "settings": "models listed, stated collectively", "from_the_text": "MgSO4 writhing test in the mouse after GYIRES et al. (Arch. int. pharmacodyn. therap. 267, 131-140, 1984)\nAdjuvans arthritis in the rat after NEWBOULD (Brit. J. Pharmacol. 21, 127-136, 1963)\nTPA or arachidonic acid-induced mouse ear edema after YOUNG et al. (J. Invest. Dermatol. 80, 48-52, 1983)\nNa-mono-iodine acetate-induced arthrosis in rats or chickens after KALBHEN, in: Arthrosis deformans, Eular-Verlag, Basel/Switzerland, 1982\nTPA-induced arthrosis in rats after WEISCHER (Agents and Actions 23, 1/2, 1988)\nIntestinal ulceration in rats after DEL SOLDATO (Agents and Actions 16, 393-396, 1985)\nColitis model in the rat after WEISCHER (Agents and Actions, 1988)\nEthanol ulcer model in the rat (determination of, for example, a cytoprotective effect)\nThe effect of topical DL-dihydrolipoic acid in the complex of symptoms induced by UV-B radiation in healthy subjects"}, "[9]": {"settings": "rats and mice; solutions in water or physiological sodium chloride containing venom and substance; cited from earlier work"}},
  "note": "“Also recorded” adds a separate entry of the source.",
  "data": [
    {"smiles": "O=C(O)CCCCC(S)CCS", "note": "(racemic) [dihydrolipoic acid, 6,8-dimercapto-octanoic acid]", "values": [
      {"measurement": "analgesic effect (in words)", "setting": "[1]; acetic acid writhing pain test in mouse", "value": "good analgesic effect"},
      {"measurement": "ED50", "setting": "[1]; ip, intraperitoneally, mouse", "value": 4.6, "unit": "mg/kg"},
      {"measurement": "analgesic effect superior to that of alpha-lipoic acid by a factor", "setting": "[1]; peroral application, acetic acid writhing, mouse", "value": "at least 1.9"},
      {"measurement": "ED50", "setting": "[1]; po, per os, mouse", "value": 26.8, "unit": "mg/kg"},
      {"measurement": "analgesic effect (in words)", "setting": "[2]; Randall Selitto inflammation pain test in rat", "value": "good analgesic effect"},
      {"measurement": "ED50", "setting": "[2]; ip, intraperitoneally, rat", "value": 0.14, "unit": "mg/kg"},
      {"measurement": "analgesic effect superior to that of alpha-lipoic acid by a factor", "setting": "[2]; peroral application, Randall Selitto, rat", "value": "≥ 2.8"},
      {"measurement": "ED50", "setting": "[2]; po, per os, rat", "value": 16.2, "unit": "mg/kg"},
      {"measurement": "minimal effective dose", "setting": "[2]; po, per os, rat, read-out: minimum dose to produce an analgesic effect in the Randall Selitto pain test", "value": 5, "unit": "mg/kg"},
      {"measurement": "anti-inflammatory activity (in words)", "setting": "[3]; carragheen-induced edema in the rat", "value": "good anti-inflammatory activity"},
      {"measurement": "ED50", "setting": "[3]; ip, intraperitoneally, rat", "value": 7.7, "unit": "mg/kg"},
      {"measurement": "anti-inflammatory activity superior to that of alpha-lipoic acid by a factor", "setting": "[3]; peroral application, carragheen edema, rat", "value": "at least 1.9"},
      {"measurement": "ED50", "setting": "[3]; po, per os, rat", "value": 26, "unit": "mg/kg"},
      {"measurement": "minimal effective dose", "setting": "[3]; po, per os, rat, read-out: minimum dose to produce an anti-inflammatory effect in the carragheen-induced edema test", "value": 5, "unit": "mg/kg"},
      {"measurement": "% effect, PAF-acether edema", "setting": "[4]; 25 mg/kg intraperitoneally", "value": 14, "unit": "%"},
      {"measurement": "% effect, PAF-acether edema", "setting": "[4]; 50 mg/kg intraperitoneally", "value": 63, "unit": "%"},
      {"measurement": "% effect, PAF-acether edema", "setting": "[4]; 200 mg/kg intraperitoneally", "value": 73, "unit": "%"},
      {"measurement": "inhibition of vasopermeability (in words)", "setting": "[4]; PAF edema in the rat", "value": "good inhibition of vasopermeability"},
      {"measurement": "LD50", "setting": "[5]", "value": "> 200", "unit": "mg/kg"},
      {"measurement": "cytoprotective effect (in words)", "setting": "[6]", "value": "good cytoprotective effect; also recorded: specific cytoprotective effect"},
      {"measurement": "time after application at which the full effect appears", "setting": "[7]; animal experiments", "value": 0.5, "unit": "h"},
      {"measurement": "effect stronger than that of alpha-lipoic acid by a factor", "setting": "[7]; in vivo", "value": "2-3"},
      {"measurement": "analgesic, anti-inflammatory, anti-arthrotic and cytoprotective effect in further models (in words)", "setting": "[8]", "value": "good analgesic, anti-inflammatory, anti-arthrotic and cytoprotective effect"},
      {"measurement": "inactivation of snake venom (in words)", "setting": "[9]", "value": "inactivates snake venom"}
    ]}
  ]
}
